The results in this text go back to patent US20070135383A1, “Phospholipase inhibitors, including multi-valent phospholipase inhibitors, and use thereof, including as lumen-localized phospholipase inhibitors” (priority 2005, published 2007).

Common to all, as to test: Fluorimetric PPyrPM assay for group 1B PLA2 inhibition (Example 12)
Common to all, as to type: biochemical

In experiment [1] the target is T1, human group 1B PLA2 (hps PLA2) (Homo sapiens, UniProt P04054).
T1 construct: made in house; host or cells: E. coli
Particulars: human pancreas secreted PLA2; read-out: ILYPSA IC50 hps PLA2. An excerpt: (§1) In this example, a fluorimetric assay procedure was used to evaluate the indole and indole-related compounds of the invention as inhibitors of group 1B phospholipase A2 (PLA2) from human, mouse and porcine. A description of this assay is found in articles: Leslie, C C and Gelb, M H (2004) Methods in Molecular Biology “Assaying phospholipase A2 activity”, 284:229-242; Singer, A G, et al. (2002) Journal of Biological Chemistry “Interfacial kinetic and binding properties of the complete set of human and mouse groups I, II, V, X, and XII secreted phospholipases A2”, 277:48535-48549, which are incorporated herein as references.
(§2) In general, this assay used a phosphatidylmethanol substrate with a pyrene fluorophore on the terminal end of the sn-2 fatty acyl chain. Without being bound by theory, close proximity of the pyrenes from neighboring phospholipids in a phospholipid vesicle caused the spectral properties to change relative to that of monomeric pyrene. Bovine serum albumin was present in the aqueous phase and captured the pyrene fatty acid when it is liberated from the glycerol backbone owing to the PLA2-catalyzed reaction. However, a potent inhibitor can inhibit the liberation of pyrene fatty acid from the glycerol backbone. […] The effect of a given inhibitor and inhibitor concentration on human, mouse and porcine phospholipase was determined.
(§3) Recombinant human and mouse group 1B PLA2 were cloned and expressed in E. coli as insoluble inclusion bodies. The inclusion bodies were isolated and purified by sonicating cell pellet in lysis buffer (50 mM Tris-HCl pH 7.0, 250 mM NaCl, 0.5% Triton 100), centrifugation at 12,000×g, and washing three times in washing buffer (20 mM Tris-HCl pH 7.0, 250 mM NaCl, 0.5% Triton 100). Then the inclusion bodies were dissolved in dissolving buffer (50 mM Tris-HCl pH 7.0, 250 mM NaCl, 6 M Guanidine-HCl, 1 mM DTT) and dialyzed four times against 10 volumes of refolding buffer (20 mM Tris-HCl pH 7.0, 250 mM NaCl, 0.5M Guanidine-HCl, 5% (w/w) Glycerol, 2 mM reduced glutathione and 0.4 mM oxidized glutathione) at 4° C. The correctly refolded proteins were concentrated using Amicon Stirred cell under nitrogen pressure (<70 psi) and dialyzed against 10 volumes of 50 mM Tris-HCl pH 7.0, 250 mM NaCl and 5% (w/w) glycerol. Human and mouse group 1B PLA2 were further purified by High S ion exchange and gel filtration columns.
(§4) The following reagents and equipments were obtained from commercial vendors: • 1. Porcine group 1B phospholipase A2 • 2. 1-hexadecanoyl-2-(1-pyrenedecanoyl)-sn-glycero-3-phosphomethanol (PPyrPM) • 3. Bovine serum albumin (BSA, fatty acid free) • 4. 2-Amino-2-(hydroxymethyl)-1,3-propanediol, hydrochloride (Tris-HCl) • 5. Calcium chloride • 6. Potassium chloride • 7. Solvents: DMSO, toluene, isopropanol, ethanol • 8. Molecular Devices SPECTRAmax microplate spectrofluorometer • 9. Costar 96 well black wall/clear bottom plate
(§5) The following reagents were prepared: • 10. PPyrPM stock solution (1 mg/ml) in toluene:isopropanol (1:1) • 11. ILY104 inhibitor stock solution (10 mM) in DMSO • 12. 3% (w/v) bovine serum albumin (BSA) • 13. Stock buffer: 50 mM Tris-HCl, pH 8.0, 50 mM KCl and 1 mM CaCl2
(§6) The following procedure was performed to evaluate the inhibitory potency of the evaluated compounds. • 14. An assay buffer was prepared by adding 3 ml 3% BSA to 47 ml stock buffer. • 15. Solution A was prepared by adding serially diluted inhibitors to the assay buffer. Inhibitors were three-fold diluted in stock buffer in a series of 8 from 15 uM. • 16. Solution B was prepared by adding human, mouse or porcine PLA2 to the assay buffer. This solution was prepared immediately before use to minimize enzyme activity loss. • 17. Solution C was prepared by adding 30 ul PPyrPM stock solution to 90 ul ethanol, and then all 120 ul of PPyrPM solution was transferred drop-wise over approximately 1 min to the continuously stirring 8.82 ml assay buffer to form a final concentration of 4.2 uM PPyrPM vesicle solution. • 18. […]

Experiment [2] concerns the target T2, mouse group 1B PLA2 (mps PLA2) (Mus musculus, UniProt Q9Z0Y2).
T2 construct: made in house; host or cells: E. coli
Particulars: mouse pancreas secreted PLA2; read-out: ILYPSA IC50 mps PLA2.
Source text: as §1, §2, §3, §4, §5, §6

The target in experiment [3] is T3, porcine group 1B PLA2 (pps PLA2) (Sus scrofa, UniProt P00592).
T3 construct: purchased
The note with it: porcine pancreas secreted PLA2; read-out: ILYPSA IC50 pps PLA2.
Source text: as §1, §2, §4, §5
The following procedure was performed to evaluate the inhibitory potency of the evaluated compounds. • 14. An assay buffer was prepared by adding 3 ml 3% BSA to 47 ml stock buffer. • 15. Solution A was prepared by adding serially diluted inhibitors to the assay buffer. Inhibitors were three-fold diluted in stock buffer in a series of 8 from 15 uM. • 16. Solution B was prepared by adding human, mouse or porcine PLA2 to the assay buffer. This solution was prepared immediately before use to minimize enzyme activity loss. • 17. Solution C was prepared by adding 30 ul PPyrPM stock solution to 90 ul ethanol, and then all 120 ul of PPyrPM solution was transferred drop-wise over approximately 1 min to the continuously stirring 8.82 ml assay buffer to form a final concentration of 4.2 uM PPyrPM vesicle solution. • 18. The SPECTRAmax microplate spectrofluorometer was set at 37° C. • 19. 100 ul of solution A was added to each inhibition assay well of a costar 96 well black wall/clear bottom plate • 20. 100 ul of solution B was added to each inhibition assay well of a costar 96 well black wall/clear bottom plate. • 21. 100 ul of solution C was added to each inhibition assay well of a costar 96 well black wall/clear bottom plate. • 22. The plate was incubated inside the spectrofluorometer chamber for 3 min. • 23. The fluorescence was read using an excitation of 342 nm and an emission of 395 nm.
Evaluated compounds were tested in duplicate and their values were averaged to plot the inhibition curve and calculate the IC50. Compared to uninhibited controls, lower fluorescent signal at an emission of 395 nm in test reactions evidenced inhibition of PLA2. […] Compounds initially found to be active were repeated to confirm their inhibitory activity. […]

T1 sequence (P04054 23-148): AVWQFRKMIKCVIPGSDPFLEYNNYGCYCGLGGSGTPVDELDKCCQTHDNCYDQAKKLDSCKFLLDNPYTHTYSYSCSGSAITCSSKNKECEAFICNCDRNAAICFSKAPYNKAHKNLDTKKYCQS
T2 sequence (Q9Z0Y2 23-146): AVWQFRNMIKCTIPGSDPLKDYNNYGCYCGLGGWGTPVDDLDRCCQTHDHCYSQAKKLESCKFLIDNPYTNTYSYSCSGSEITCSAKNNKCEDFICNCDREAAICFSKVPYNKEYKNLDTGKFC
T3 sequence (P00592 23-146): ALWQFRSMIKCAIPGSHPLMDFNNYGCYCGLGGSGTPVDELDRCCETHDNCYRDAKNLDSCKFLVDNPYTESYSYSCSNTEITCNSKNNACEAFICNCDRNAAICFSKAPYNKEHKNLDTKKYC

For orientation: IC50 means the concentration needed to halve the response being measured. Consider `Cc1c(C(=O)C(N)=O)c2c(OCC(=O)O)cccc2n1CCCCCCCCSCCCCSCCCCCCCCn1c(C)c(C(=O)C(N)=O)c2c(OCC(=O)O)cccc21` [ILY-V-23, 2,2′-(1,1′-(8,8′-(butane-1,4-diylbis(sulfanediyl))bis(octane-8,1-diyl))bis(3-(2-amino-2-oxoacetyl)-2-methyl-1H-indole-4,1-diyl))bis(oxy)diacetic acid], for which the IC50 in experiment [1] was determined as 2160 nM; in experiment [2], 550 nM; in experiment [3], 1120 nM.

`Cc1c(C(=O)C(N)=O)c2c(OCC(=O)O)cccc2n1CCCCCCCCCCCCSCCCCSCCCCCCCCCCCCn1c(C)c(C(=O)C(N)=O)c2c(OCC(=O)O)cccc21` [ILY-V-25, 2,2′-(1,1′-(12,12′-(Butane-1,4-diylbis(sulfanediyl))bis(dodecane-12,1-diyl))bis(3-(2-amino-2-oxoacetyl)-2-methyl-1H-indole-4,1-diyl))bis(oxy)diacetic acid]: the IC50 was 150 nM in experiment [1], 350 nM in experiment [2] and 190 nM in experiment [3].

Regarding `Cc1c(C(=O)C(N)=O)c2c(OCC(=O)O)cccc2n1CCCCCCCCCCCCOc1ccccc1OCCCCCCCCCCCCn1c(C)c(C(=O)C(N)=O)c2c(OCC(=O)O)cccc21` [ILY-V-27, [3-Aminooxalyl-1-(12-{2-[12-(3-aminooxalyl-4-carboxymethoxy-2-methyl-indol-1-yl)-dodecyloxy]-phenoxy}-dodecyl)-2-methyl-1H-indol-4-yloxy]-acetic acid], the half-inhibitory concentration (IC50) in experiment [1] stood at 150 nM; in experiment [2], 200 nM; in experiment [3], 150 nM.

Regarding `Cc1c(C(=O)C(N)=O)c2c(OCC(=O)O)cccc2n1CCCCCCCCCCCCSSCCCCCCCCCCCCn1c(C)c(C(=O)C(N)=O)c2c(OCC(=O)O)cccc21` [ILY-V-28, 2,2′-(1,1′-(12,12′-disulfanediylbis(dodecane-12,1-diyl))bis(3-(2-amino-2-oxoacetyl)-2-methyl-1H-indole-4,1-diyl))bis(oxy)diacetic acid], the IC50 turned out to be 600 nM in experiment [1], 1000 nM in experiment [2] and 730 nM in experiment [3].

Take `Cc1c(C(=O)C(N)=O)c2c(OCC(=O)O)cccc2n1CCCCCCCCCCCCN(CCCCCCCCCCCCn1c(C)c(C(=O)C(N)=O)c2c(OCC(=O)O)cccc21)Cc1ccccc1` [ILY-V-31, 2,2′-(1,1′-(12,12′-(benzylazanediyl)bis(dodecane-12,1-diyl))bis(3-(2-amino-2-oxoacetyl)-2-methyl-1H-indole-4,1-diyl))bis(oxy)diacetic acid]: the IC50 in experiment [1] came to 100 nM; in experiment [2], 30 nM; in experiment [3], 20 nM.

Take `Cc1c(C(=O)C(N)=O)c2c(O)cccc2n1CCCCCCCCCCCCSCCCCCCCCCCCCn1c(C)c(C(=O)C(N)=O)c2c(O)cccc21` [ILY-V-35]: the values for the 50% inhibitory concentration (IC50) in experiment [1], in experiment [2] and in experiment [3] were 1520 nM, 3650 nM and 2090 nM, respectively.

On to `Cc1c(C(=O)C(N)=O)c2c(OCC(=O)O)cccc2n1CCCCCCCCCCCCOc1ccc(-c2ccc(OCCCCCCCCCCCCn3c(C)c(C(=O)C(N)=O)c4c(OCC(=O)O)cccc43)cc2)cc1` [ILY-V-36, [3-Aminooxalyl-1-(12-{4′-[12-(3-aminooxalyl-4-carboxymethoxy-2-methyl-indol-1-yl)-dodecyloxy]-biphenyl-4-yloxy}-dodecyl)-2-methyl-1H-indol-4-yloxy]-acetic acid], for which the IC50 was 1250 nM in experiment [1], 920 nM in experiment [2] and 440 nM in experiment [3].

Take `Cc1c(C(=O)C(N)=O)c2c(OC(C(=O)O)C(C)C)cccc2n1CCCCCCCCCCCCn1c(C)c(C(=O)C(N)=O)c2c(OC(C(=O)O)C(C)C)cccc21` (stereo not drawn) [ILY-V-44, 2-(3-Aminooxalyl-1-{12-[3-aminooxalyl-4-(1-carboxy-2-methyl-propoxy)-2-methyl-indol-1-yl]-dodecyl}-2-methyl-1H-indol-4-yloxy)-3-methyl-butyric acid]: the IC50 in experiment [1] stood at 280 nM; in experiment [2], 480 nM; in experiment [3] it was 50 nM.
